Measurements published in patent US20120029002A1, “BENZIMIDAZOLE AND PYRAZOLOPYRIDINE DERIVATIVES FOR TREATING AND/OR PREVENTING CARDIOVASCULAR DISEASES” (BAYER SCHERING PHARMA AKTIENGESELLSCHAFT, priority 2009, published 2012).

Tested on: aorta rings
Experiment: Vasorelaxant effect in vitro (phenylephrine-contracted rabbit aorta rings)
Assay type: cell-based, Rabbits
Conditions: Oryctolagus cuniculus; concentration necessary to reduce the height of the phenylephrine-induced contraction of rabbit aorta rings by 50%; organ bath, 37° C., 0.1% DMSO
Method: B-1. Vasorelaxant effect in vitro
Rabbits are stunned by a blow to the neck and exsanguinated. The aorta is removed, freed from adhering tissue and divided into rings of a width of 1.5 mm The rings are placed individually under an initial tension in 5 ml organ baths with Krebs-Henseleit solution which is at 37° C., is gassed with carbogen and has the following composition (in each case mM): NaCl: 119; KCl: 4.8; CaCl2×2 H2O: 1; MgSO4×7 H2O: 1.4; KH2PO4: 1.2; NaHCO3: 25; glucose: 10. The force of contraction is detected with Statham UC2 cells, amplified and digitized via A/D converters (DAS-1802 HC, Keithley Instruments, Munich) and recorded in parallel on chart recorders. Contractions are induced by cumulatively adding increasing concentrations of phenylephrine to the bath. After several control cycles, the substance to be investigated is added in each further run in increasing dosage, and the height of the contraction achieved is compared with the height of the contraction reached in the last preceding one. The concentration necessary to reduce the height of the control value by 50% is calculated from this (IC50 value). The standard application volume is […] the proportion of DMSO in the bath solution corresponds to 0.1%.

**Q.** For `Nc1nc(-n2nc(Sc3ccccc3F)c3ccccc32)nc(N)c1N` [Example 3, 2-{3-[(2-Fluorophenyl)sulphanyl]-1H-indazol-1-yl}pyrimidine-4,5,6-triamine], which IC50 is on record?
**A.** The IC50 was 2.15 µM.

**Q.** With `CC(C)OC(=O)Nc1c(N)nc(-n2nc(Sc3ccccc3F)c3ccccc32)nc1N` [Example 12, Propan-2-yl (4,6-diamino-2-[3-[(2-fluorophenyl)sulphanyl]-1H-indazol-1-yl]pyrimidin-5-yl)-carbamate] as the compound, how does the IC50 read?
**A.** Its IC50 is 4.93 µM.

**Q.** How did the IC50 turn out when `CC(C)OC(=O)Nc1c(N)nc(-n2nc(Sc3ccccc3F)c3ncccc32)nc1N` [Example 9, Propan-2-yl (4,6-diamino-2-{3-[(2-fluorophenyl)sulphanyl]-1H-pyrazolo[4,3-b]pyridin-1-yl}pyrimidin-5-yl)carbamate] was run?
**A.** Its IC50 is 1.43 µM.

**Q.** For `CC(C)OC(=O)Nc1c(N)nc(-n2nc(Oc3ccccc3F)c3ccccc32)nc1N` [Example 19, Propan-2-yl{4,6-diamino-2-[3-(2-fluorophenoxy)-1H-indazol-1-yl]pyrimidin-5-yl}carbamate], which IC50 is on record?
**A.** Its IC50 is 5.64 µM.
